Test results as given in patent US20110054193A1, “STATIN PRODUCTION” (priority 2008, published 2011).

Legend:
[1] = system: Penicillium chrysogenum ΔhdfAΔ Pc18g05230; test: Compactin sensitivity of Penicillium chrysogenum strains, growth in liquid media; type: cell-based; conditions: mutant for Pc18g05230 (SEQ ID NO 1); liquid media with different amounts of compactin; 2 days of growth at 25 C
Procedure: (§1) Fungal growth was performed in a mineral medium, containing (g/L): glucose (5); lactose (35); urea (4.5); (NH4)2SO4 (1.1); Na2SO4 (2.9); KH2PO4 (5.2); K2HPO4 (4.8) and 10 mL/L of a trace element solution containing (in g/l): citric acid (150); FeSO4.7H2O (15); MgSO4.7H2O (150); H3BO3 (0.0075); CuSO4.5H2O (0.24); CoSO4.7H2O (0.375); ZnSO4.7H2O (5); MnSO4.H2O (2.28); CaCl2.2H2O (0.99); pH before sterilization 6.5. Oxoid agar was added at 15 g/l to solidify the medium.
(§2) Compactin was maintained as a stock solution at 20 g/L in ethanol at −20 C.
The gene Pc18g05230 was identified as a HMGR encoding gene. In order to prevent the transcription of this gene a selection marker gene was inserted between the promoter and the open reading frame (ORF). To this end the promoter and the ORF were PCR amplified using the oligonucleotides SEQ ID NO 5 plus 6 and SEQ ID NO 7 plus 8, respectively (see FIG. 1). Phusion Hot-Start Polymerase (Finnzymes) was used to amplify the fragments. The fragments obtained are 1539 and 2514 base pairs (bp) in length (SEQ ID NO 31 and SEQ ID NO 32) and contain a 14 bp tail suitable for the so-called STABY cloning method (Eurogentec). From the standard STABY vector, pSTC1.3, two derivatives were obtained. One, pSTamdSL (SEQ ID NO 39), was used for cloning the PCR amplified promoter (SEQ ID NO 31). […]

[2] = system: Penicillium chrysogenum ΔhdfAΔ Pc16g05060; test: as above; type: cell-based; conditions: mutant for Pc16g05060 (SEQ ID NO 9); liquid media with different amounts of compactin; 2 days of growth at 25 C
Procedure: as §1, §2
The gene Pc16g05060 was identified as a HMGR encoding gene. In order to prevent the transcription of this gene a selection marker gene was inserted between the promoter and the open reading frame (ORF). To this end the promoter and the ORF were PCR amplified using the oligonucleotides SEQ ID NO 13 plus 14 and SEQ ID NO 15 plus 16, respectively (see FIG. 1). Phusion Hot-Start Polymerase (Finnzymes) was used to amplify the fragments. The fragments obtained are 1539 and 1514 base pairs (bp) in length (SEQ ID NO 35 and SEQ ID NO 36) and contain a 14 bp tail suitable for the so-called STABY cloning method (Eurogentec).
Spores of the Penicillium chrysogenum mutants for both HMGR encoding genes, Pc18g05230 (SEQ ID NO 1) and Pc16g05060 (SEQ ID NO 9), were inoculated in liquid media with different amounts of compactin.

In the case of CC[C@H](C)C(=O)O[C@H]1CCC=C2C=C[C@H](C)[C@H](CC[C@@H]3C[C@@H](O)CC(=O)O3)[C@H]21 [Compactin, compactin], the “compactin sensitivity of the mutant, in words” value [1] is reported as “increased compactin sensitivity” and the “compactin sensitivity of the mutant, in words” value [2] is reported as “increased compactin sensitivity”.
